Assay results from a melting point compilation (Tetko et al.; mined from patent text by program, amines drawn as free bases though some values may be those of a salt).

| SMILES | melting point |
| --- | --- |
| COc1ccc2cc(C(OC)(OC)C(C)OS(=O)(=O)c3ccc(C)cc3)ccc2c1 (stereo not given) | 148 to 150 °C |
| Cc1oc(-c2ccc(SC(F)(F)F)cc2)nc1CCOc1ccc(CN(O)C(N)=O)cc1 | 157 to 159 °C |
| N#CN=C(Nc1ccc(NCCF)nc1)Oc1ccccc1 | 157 to 158 °C |
| O=C(O)c1cc2cccc(Cl)c2s1 | 262 to 265 °C |
| Clc1ccc(C=C(OC2CCCCC2)n2cncn2)c(Cl)c1 | 84 °C |
| COc1cc(C(=O)c2csc(Nc3ccc(Cl)cc3)n2)cc(OC)c1OC | 165 to 166 °C |
| CCNC1(c2ccccc2Cl)C(=O)N(Cc2ccc(C(=O)NC(C)(C)CO)cc2)c2ccc(Cl)cc21 (stereo not given) | 170 to 172 °C |
| O=Cc1cc(Cc2ccccc2)ccc1O | 78 to 79 °C |
| CN1CCN(c2ncnc3c(N)cccc23)C1=O | 187 to 189 °C |
| O=c1[nH]c(=O)n([C@@H]2CO[C@@H](CO)O2)cc1/C=C/Br | 75 to 78 °C |
| Cc1oc(-c2ccccc2)nc1C(=O)COc1ccc(CC2SC(=O)NC2=O)cc1 (stereo not given) | 168 to 169 °C |
| Oc1ccc(Oc2cccc(F)c2)cc1 | 53 to 55 °C |
| Cc1oc(-c2ccco2)nc1COc1ccc(COc2nn(Cc3ccccc3)cc2C=O)cc1-c1ccccc1 | 122 to 123 °C |
| CCOCc1nc2c(N)nc3ccccc3c2n1CC1(O)CCOCC1 | 212 to 214 °C |
| CCCCOC(=O)c1c(CN2CCCCC2)nc2cc(OC)c(OC)cc2c1-c1ccc(OC)c(OC)c1 | 154 to 155 °C |
| CNC(=O)[C@H](C)C[C@H](O)[C@H](CC1CCCCC1)NC(=O)[C@H](Cc1cscn1)NC(=O)[C@@H](CC(=O)N1CCOCC1)Cc1ccccc1 | 130 to 132 °C |
| CC(C)(C)OC(=O)N[C@H]1CC[C@H](CC(=O)O)CC1 | 161 to 163 °C |
| Cc1ccc(S(=O)(=O)N2CCCC2c2cccnc2)cc1 (racemic) | 112 °C |
| CCCCC[C@H]1CC[C@H](CCCOc2ccc(O)cc2)CC1 | 100 to 101 °C |
| CCCc1c(COc2ccc(-c3nnn[nH]3)cc2)ccc(C(C)=O)c1O | 203 to 205 °C |
| N#Cc1ccc(CNC(c2ccccc2)c2ccccc2)cc1 | 75 °C |
| COc1ccc(C2CCN(C(=O)C(=O)NO)CC2)cc1CC1CCCC1 | 138 °C |
| O=C(NN=Cc1ccc(C(F)(F)F)c([N+](=O)[O-])c1)c1ccc(O)cc1 | 280 °C |
| CS(=O)(=O)c1ccc(C=C2/C(=N/O)CCc3ccccc32)cc1 | 165 to 166 °C |
| O=C(O)c1cnc2n(c1=O)CCCC2=NNc1ccccc1 | 267 to 268 °C |

| SMILES | melting point |
| --- | --- |
| Cc1oc(-c2ccccc2)nc1CCOc1ccc(C=O)cc1 | 79 to 81 °C |
| COc1ccc(C(=O)c2c(N)sc3c2CCCN3C(=O)OCc2ccccc2)cc1OC | 177 to 178 °C |
| CN1CCN(c2ccc(C3(C)C(=O)Nc4ccc(Cl)cc43)c(Cl)c2)CC1 (stereo not given) | 155 °C |
| Oc1ccc(SCCCN2CCOCC2)c(O)c1 | 99 °C |
| Cc1cc(C)c2c(c1)C(=O)C1(CCNCC1)CC2 | > 260 °C |
| CCCC(CCC)Nc1cc(C)nc(Cl)c1N | 139 to 140 °C |
| CC(C)CC1N=C(c2ccccc2)c2cc(Cl)ccc2N=C1NN (stereo not given) | 165 to 168 °C |
| Nc1c(C(=O)c2ccccc2)[nH]c2cc(Cl)ccc12 | 128 to 130 °C |
| CC(C)(C)OC(=O)N1CCC[C@H](C(=O)c2ccccc2)C1 | 75 to 79 °C |
| COc1cc2cc(C(=O)OCc3ccccc3)[nH]c2cn1 | 182 °C |
| CC1CC=C(c2ccc(C(C)C(=O)O)cc2)CC1 (stereo not given) | 100 to 104 °C |
| Cc1c(C)c2c(c(C)c1O)SCO2 | 131 to 132 °C |
| C=C(c1ccc(OC)c(N)c1)c1ccc(OC)c(OCC)c1 | 91 to 93 °C |
| Cc1cc(Cc2nnc(Nc3ccc(Cl)cc3)c3ccccc23)ccn1 | 183 to 184 °C |
| NC(=O)CN1Cc2ccccc2CCC1=O | 156 to 158 °C |
| COc1cccc([C@H]2O[C@H](CC(=O)NCCCC(=O)O)C(=O)N(CC(C)(C)CO)c3ccc(Cl)cc32)c1OC | 111 to 113 °C |
| CCOC(=O)C(NS(=O)(=O)c1ccc(C)cc1)C1CCOC1C#N (stereo not given) | 105 to 107 °C |
| CCOC(=O)C1=C(C)NC(C#N)=C(C(=O)OCC)C1c1ccccc1[N+](=O)[O-] (stereo not given) | 126 to 128 °C |
| CC(C)(C)OC(=O)N1CCC(c2n[nH]c(-c3ccccn3)n2)CC1 | 220 °C |
| O=C(O)CCCc1cc2nc(Cl)ccc2n1S(=O)(=O)c1cccc2nccnc12 | 74 °C |
| O=C(Nc1cc2ncc(CN3CCCC3)cc2cc1Cl)c1ccc(-c2cc3ccccc3o2)cc1 | 209 °C |
| O=C(CCCl)Nc1ccc(C(=O)c2ccccc2)cc1 | 135 to 136 °C |
| O=C1Nc2cccnc2N(C(=O)NCCN2CCCCC2CNCC2CCCC2)c2ccccc21 (stereo not given) | 157 to 158 °C |
| O=C(Nc1ccc2[nH]ncc2c1)O[C@H](c1ccc(Cl)c(Cl)c1)[C@H]1CCCCN1 | 210 °C |
| Cc1ccc(C(=O)c2ccc(SCCO)cc2)cc1C | 92 to 93 °C |

| SMILES | melting point |
| --- | --- |
| CC(C(=O)O)c1ccc2oc(Cc3ccc(Cl)cc3)nc2c1 (stereo not given) | 135 to 137 °C |
| O=C(O)c1c2c(nc3ccc(F)cc13)-c1ccc(-c3ccccc3F)cc1CCCC2 | > 300 °C |
| O=C(O)[C@H](CCc1ccccc1)NS(=O)(=O)c1ccc2c(c1)Sc1ccccc1O2 | 149 to 154 °C |
| COc1ccccc1NC(=O)Nc1nc(Nc2ccccc2-c2ccccc2)nc(N(CCC(=O)O)Cc2ccc(C(F)(F)F)cc2)n1 | 125 to 128 °C |
| CC(=O)SCCC1NSc2cc(S(N)(=O)=O)c(Cl)cc2N1 (stereo not given) | 192 to 195 °C |
| CCc1noc(-c2cn(-c3ncc(OC(C)C)cn3)cn2)n1 | 156 to 157 °C |
| O=S(=O)(c1ccc(Cl)cc1)C(c1cccnc1)c1cc(F)ccc1F (stereo not given) | 130 to 131 °C |
| CN(C)C=CC(=O)c1c(-c2ccc(C(C)(C)NC(=O)OC(C)(C)C)cc2)ccc2nn(C3CCCCO3)cc12 (stereo not given) | 191 to 194 °C |
| CS(=O)(=O)On1c(C(F)(F)F)nc2ncc(Cl)cc21 | 137 °C |
| CS(=O)(=O)CC1COCc2nc3c(N)nc4ccccc4c3n21 (stereo not given) | 158 to 161 °C |
| CC(=O)Nc1ccc2oc(-c3ccccc3)c(O)c(=O)c2c1 | 241 to 242 °C |
| O=C(O)C1CCN1C(c1ccccc1)c1ccccc1 (stereo not given) | 132 to 137 °C |
| O=c1c2cnc3ccc(F)cc3c2on1-c1ccccc1 | 174 °C |
| COC(=O)Cc1cc(C(C)=O)ccc1OCc1ccccc1 | 85 to 87 °C |
| N=C(NC(=O)OCc1ccccc1)c1ccc(C(=O)NCCC(=O)NCCC(=O)OCc2ccccc2)cc1 | 165 to 166 °C |
| COc1cccc2c1CCCC2=NO | 158 to 159 °C |
| COc1cc(C)c(C(=O)c2c(C)cccc2O)c(OC)c1OC | 82 to 84 °C |
| Cc1ccc(F)cc1C(=O)Nc1ccc(C(=O)N2Cc3ccnn3Cc3ccccc32)cn1 | 250 to 260 °C |
| Cc1ccc(S(=O)(=O)c2ccc3c(c2)c(CCN(C)C(=O)OC(C)(C)C)c(C)n3C)cc1 | 129 to 133 °C |
| N#Cc1c(Cl)nc2n(c1=O)CCS2 | 148 to 150 °C |
| COC(=O)c1cc(C(=O)NNC(=O)c2ccco2)c2cc(Cc3ccc(F)cc3)cnc2c1O | 207 to 210 °C |
| COc1c([N+](=O)[O-])cc2cc(-c3ccc([N+](=O)[O-])cc3)c(=O)oc2c1OC | 219 to 223 °C |
| Cc1c(C(=O)C(N)=O)c2c(OCC(=O)O)cc3c(c2n1Cc1ccccc1)CCC3 | 255 to 257 °C |
| CN1CC(=Cc2ccccc2Cl)C(=O)C(=Cc2ccccc2Cl)C1 | 148 to 150 °C |
| CC(=O)OCCCc1cc2c(s1)-n1c(C)nnc1CN=C2c1ccccc1Cl | 153 to 155 °C |

| SMILES | melting point |
| --- | --- |
| Cc1cccc(N)c1[N+](=O)[O-] | 105 to 108 °C |
| CCOC(=O)Cn1c2cccccc-2c(C(=O)OCC)c1=O | 115 to 120 °C |
| Cc1cccc(COc2cccc(O)c2)c1C(=O)O | 112 to 113 °C |
| COc1ccc2c(c1)CC[C@@H](Br)[C@@H]2O (relative stereo) | 80 to 82 °C |
| C[C@@H](O[Si](C)(C)C(C)(C)C)[C@H]1C(=O)N([Si](C)(C)C(C)(C)C)[C@@H]1CC=O | 115 to 116 °C |
| Cc1ccc2ccn(CC(C)O)c2c1 (racemic) | 65 to 69 °C |
| CC1CC(CN2CCNC2=N[N+](=O)[O-])CO1 (stereo not given) | 109 to 110 °C |
| O=C(Oc1ccccc1)[C@H]1O[C@@H]1C1CCCCC1 | 59 to 60 °C |
| O=C(c1ccc(Cl)cn1)c1ccc(Cl)cn1 | 164 to 167 °C |
| COc1cc(OC(C)(C)C(=O)O)c(C=O)cc1-c1cccs1 | 187 to 188 °C |
| CCCc1c(C(=O)CCl)c2ccc(C(=O)OC)cc2n1Cc1ccccc1Cl | 143 to 145 °C |
| CCc1ccc(N2CCOCC2)c(NC(C)=O)c1 | 82 °C |
| O=C(c1cccs1)c1cnn2c(-c3cccc(-c4ccn(CC5CCC5)n4)c3)ccnc12 | 60 °C |
| Oc1ccccc1-c1nc(-c2ccccc2)no1 | 156 to 158 °C |
| COc1ccc(Cl)cc1N1CCN(CCCN2C(=O)c3ccccc3C2=O)CC1 | 131 to 133 °C |
| OC(CCN1CCN(c2ccccn2)CC1)COc1cccc(C(F)(F)F)c1 (stereo not given) | 81 to 81.5 °C |
| N#CC(C#N)=C1Sc2nc3cc(Cl)c([N+](=O)[O-])cc3nc2S1 | 297 to 299 °C |
| CCOC1CCN(c2nnc(-c3ccc(C)cc3)c(-c3ccc(C)cc3)n2)CC1 | 124 to 126 °C |
| COc1cc(O)nc(N)n1 | 106 to 107 °C |
| CCC1(CC)CN(C2CC3(C)C(CCC4C5CCC(C(C)=O)C5(C)CC(=O)C43)CC2O)CCO1 (stereo not given) | 177 to 179 °C |
| CCOC(=O)C1=C(C)N=C(SCc2ccc(OC)cc2)N(C(=O)c2ccc([N+](=O)[O-])cc2)C1c1cccc([N+](=O)[O-])c1 (stereo not given) | 121 to 123 °C |
| COc1cccc2c1CN(c1nc3c(cc1F)c(=O)c(C(=O)O)cn3C1CC1)C2 | > 300 °C |
| O=C(O)CCCOc1ccc(N2CCN(c3ccncc3)CC2)cc1 | 305 to 306 °C |
| O=C(O)C1OC(c2ccccc2)=NN1C(=O)CCS (stereo not given) | 106 to 109 °C |
| CC(C)(C)c1cc(CN)c(O)c(I)n1 | 162 to 165 °C |
